Data reported in patent US20240368667A1, “RAPID, LABEL-FREE ANTIBIOTIC SUSCEPTIBILITY OF BACTERIA DIRECTLY FROM POSITIVE BLOOD OR BODILY FLUID/CULTURE” (priority 2021, published 2024).
In brackets after ≈: the same amount, converted by molar mass.

Columns and labels:
E. coli [1] = assay: Direct flow cytometric AST (high-throughput flow cytometry, HTFC) of sucrose-recovered bacteria; format: cell-based, Escherichia coli; design: key to susceptibility classification, HTFC: (S) sensitive; (I) intermediate; (R) resistant; settings: sucrose-recovered, antibiotic 4 hours (37° C.); for MIC: Escherichia coli, 4 h, read-out: Minimum inhibitory concentration, HTFC
Method: (§1) AST workflow using bacteria recovered directly from positive blood culture. A 1-mL aliquot of bacteria recovered using separation method 2 was diluted 10-fold in CAMHB, the OD600 adjusted to ˜0.01, and a 50 μL aliquot distributed into each well of a 96-well plate containing CAMHB with and without ceftazidime, tobramycin, and either meropenem (E. coli and P. aeruginosa) or oxacillin (S. aureus). Following Clinical and Laboratory Standards Institute (CLSI) guidelines^33, 2% sodium chloride (NaCl) was present in wells containing oxacillin to assist in the detection of methicillin-resistant S. aureus (MRSA). […] To account for observed differences in doubling and lag times, E. coli and P. aeruginosa were incubated for 4 hours at 37° C., while S. aureus was incubated for 9 hours at 35° C. After incubation, antibiotic plates were removed from the incubator and directly stored on ice (i.e. no post-processing) until high-throughput flow cytometry (BD LSRFortessa with HTS-system, BD, Franklin Lakes, NJ). No-antibiotic controls and antibiotic-treated samples were handled identically.
(§2) MIC Determination by flow cytometry. Because antibiotic effects are observed in both the position of scatter signatures (morphology changes) and count rates (growth inhibition), a modified count rate, accounting for scatter position, was used to evaluate susceptibility. Briefly, no-antibiotic control populations (triplicate) were pooled, binned, and a convex hull boundary set at 1-standard deviation above the background (not including bins with zero counts) was drawn. […] The overlap ratio, measuring changes in morphology, was then computed by dividing the number of sample events within the no-antibiotic control boundary by the total number of events within the sample. As an increase in count rate attributed to viable bacteria in antibiotic-treated samples is not scientifically meaningful, the fractional overlap was multiplied by the minimum of the control and sample count rates to generate a modified count rate accounting for antibiotic-induced morphological changes. All modified count rates were normalized by the average of the no-antibiotic controls. For automatic MIC determination, normalized count rates corresponding to n (index of predicted MIC), n+1, n+2 were iteratively fit to a linear function with a frameshift of n+1 between iterations (FIGS. 8 and 9). […] A threshold of −0.01 instead of zero was used to mitigate the influence of small fluctuations in normalized count rates on susceptibility determinations.

E. coli [2] = assay: Broth microdilution (BMD) MIC; format: cell-based, Escherichia coli; design: key to susceptibility classification, BMD: (S) sensitive; (I) intermediate; (R) resistant; settings: broth microdilution; for MIC: Escherichia coli, read-out: Minimum inhibitory concentration, BMD
Method: (§3) Microbroth dilution for minimum inhibitory concentrations (MIC) with and without sucrose recovery. To isolate bacteria without sucrose, culture media from positive BacT/alert FA PLUS aerobic culture bottles (bioMérieux, Durham, NC) was serially diluted and plated onto LB agar (Lennox; Sigma-Aldrich, St. Louis, MO). Bacterial suspensions were prepared by resuspending colonies in CAMHB with incubation on a MaxQ 4000 incubator shaker (Thermo Fisher Scientific, Waltham, MA) at 37° C. and ˜225 rpm for 3 hours. Bacteria recovered via Method 2 were diluted 10-fold in CAMHB. Following incubation or sucrose recovery and dilution, bacterial suspensions were adjusted to ˜0.004 OD600 with CAMHB and a 50-μL aliquot distributed to each well of a 96-well plate containing CAMHB with and without clinically relevant antibiotics (2-fold dilution series). Gram-negative plates included: ceftazidime (3rd generation cephalosporin, RPI corp., Mount Prospect, IL), cefepime (4th generation cephalosporin, Chem-Impex Int'l, Wood Dale, IL), meropenem (carbapenem, Tokyo Chemical Industry, Tokyo, Japan), levofloxacin (quinolone, Alfa Aesar, Haverhill, MA), and tobramycin (aminoglycoside, MP Biomedicals LLC, Santa Ana, CA), while S. aureus plates contained: oxacillin (beta-lactam, Sigma-Aldrich, St. Louis, MO), vancomycin (glycopeptide, Santa Cruz Biotechnology, Dallas, TX), erythromycin (macrolide, Sigma-Aldrich, St. Louis, MO), clindamycin ([…]), and ciprofloxacin (fluoroquinolone, Sigma-Aldrich, St. Louis, MO). Antibiotic plates were incubated at 37° C. for 16-20 hours (gram-negative) or 35° C. for 24 hours (S. aureus), at which time, plates were removed from the incubator and visually inspected for bacterial growth. The MIC was set at the lowest antibiotic concentration at which no growth was detected.

P. aeruginosa [3] = assay: Direct flow cytometric AST (high-throughput flow cytometry, HTFC) of sucrose-recovered bacteria; format: cell-based, Pseudomonas aeruginosa; design: key to susceptibility classification, HTFC: (S) sensitive; (I) intermediate; (R) resistant; settings: for MIC: Pseudomonas aeruginosa, read-out: Minimum inhibitory concentration, HTFC
Method: as §1, §2

P. aeruginosa [4] = assay: Broth microdilution (BMD) MIC; format: cell-based, Pseudomonas aeruginosa; design: key to susceptibility classification, BMD: (S) sensitive; (I) intermediate; (R) resistant; settings: for MIC: Pseudomonas aeruginosa
Method: as §3

C[C@@H](O)[C@H]1C(=O)N2C(C(=O)O)=C(S[C@@H]3CN[C@H](C(=O)N(C)C)C3)[C@H](C)[C@H]12 [Meropenem, meropenem]
susceptibility classification, HTFC (E. coli [1]; E. coli Blood Culture A): (S)
susceptibility classification, HTFC (E. coli [1]; E. coli Blood Culture B): (S)
susceptibility classification, HTFC (E. coli [1]; E. coli EC37): (S)
susceptibility classification, HTFC (E. coli [1]; E. coli EC-bank): (S)
susceptibility classification, HTFC (E. coli [1]; E. coli Mu76): (R)
susceptibility classification, HTFC (E. coli [1]; E. coli Mu218): (S)
susceptibility classification, HTFC (E. coli [1]; E. coli Mu890): (S)
MIC (E. coli [1]; E. coli Blood Culture A): ≤ 0.06 µg/mL
MIC (E. coli [1]; E. coli Blood Culture B): ≤ 0.06 µg/mL
MIC (E. coli [1]; E. coli EC37): ≤ 0.06 µg/mL
MIC (E. coli [1]; E. coli EC-bank): ≤ 0.06 µg/mL
MIC (E. coli [1]; E. coli Mu76): 4 µg/mL (≈ 10.4 µM)
MIC (E. coli [1]; E. coli Mu218): ≤ 0.06 µg/mL
MIC (E. coli [1]; E. coli Mu890): ≤ 0.06 µg/mL
susceptibility classification, BMD (E. coli [2]; E. coli Blood Culture A): (S)
susceptibility classification, BMD (E. coli [2]; E. coli Blood Culture B): (S)
susceptibility classification, BMD (E. coli [2]; E. coli EC37): (S)
susceptibility classification, BMD (E. coli [2]; E. coli EC-bank): (I)
susceptibility classification, BMD (E. coli [2]; E. coli Mu76): (S)
susceptibility classification, BMD (E. coli [2]; E. coli Mu218): (S)
susceptibility classification, BMD (E. coli [2]; E. coli Mu890): (S)
MIC (E. coli [2]; E. coli Blood Culture A): ≤ 0.06 µg/mL
MIC (E. coli [2]; E. coli Blood Culture B): ≤ 0.06 µg/mL
MIC (E. coli [2]; E. coli EC37): ≤ 0.06 µg/mL
MIC (E. coli [2]; E. coli EC-bank): 2 µg/mL (≈ 5.22 µM)
MIC (E. coli [2]; E. coli Mu76): 0.5 µg/mL (≈ 1.3 µM)
MIC (E. coli [2]; E. coli Mu218): ≤ 0.06 µg/mL
MIC (E. coli [2]; E. coli Mu890): ≤ 0.06 µg/mL
susceptibility classification, HTFC (P. aeruginosa [3]; P. aeruginosa Blood Culture B, antibiotic 4 hours (37° C.)): (S)
susceptibility classification, HTFC (P. aeruginosa [3]; P. aeruginosa Blood Culture C, antibiotic 4 hours (37° C.)): (S)
susceptibility classification, HTFC (P. aeruginosa [3]; P. aeruginosa PA7, antibiotic 4 hours (37° C.)): (S)
susceptibility classification, HTFC (P. aeruginosa [3]; P. aeruginosa PA46, antibiotic 4 hours (37° C.)): (S)
susceptibility classification, HTFC (P. aeruginosa [3]; P. aeruginosa PA49, antibiotic 4 hours (37° C.)): (S)
susceptibility classification, HTFC (P. aeruginosa [3]; P. aeruginosa PA81, antibiotic 4 hours (37° C.)): (R)
susceptibility classification, HTFC (P. aeruginosa [3]; P. aeruginosa PAO1, antibiotic 4 hours (37° C.)): (S)
MIC (P. aeruginosa [3]; 4 h, P. aeruginosa Blood Culture B, antibiotic 4 hours (37° C.)): 2 µg/mL (≈ 5.22 µM)
MIC (P. aeruginosa [3]; 4 h, P. aeruginosa Blood Culture C, antibiotic 4 hours (37° C.)): 0.125 µg/mL (≈ 0.326 µM)
MIC (P. aeruginosa [3]; 4 h, P. aeruginosa PA7, antibiotic 4 hours (37° C.)): 2 µg/mL (≈ 5.22 µM)
MIC (P. aeruginosa [3]; 4 h, P. aeruginosa PA46, antibiotic 4 hours (37° C.)): 1 µg/mL (≈ 2.61 µM)
MIC (P. aeruginosa [3]; 4 h, P. aeruginosa PA49, antibiotic 4 hours (37° C.)): 0.5 µg/mL (≈ 1.3 µM)
MIC (P. aeruginosa [3]; 4 h, P. aeruginosa PA81, antibiotic 4 hours (37° C.)): 8 µg/mL (≈ 20.9 µM)
MIC (P. aeruginosa [3]; PAO1, 4 h, P. aeruginosa PAO1, antibiotic 4 hours (37° C.)): 2 µg/mL (≈ 5.22 µM)
susceptibility classification, BMD (P. aeruginosa [4]; P. aeruginosa Blood Culture B, broth microdilution): (R)
susceptibility classification, BMD (P. aeruginosa [4]; P. aeruginosa Blood Culture C, broth microdilution): (S)
susceptibility classification, BMD (P. aeruginosa [4]; P. aeruginosa PA7, broth microdilution): (S)
susceptibility classification, BMD (P. aeruginosa [4]; P. aeruginosa PA46, broth microdilution): (S)
susceptibility classification, BMD (P. aeruginosa [4]; P. aeruginosa PA49, broth microdilution): (S)
susceptibility classification, BMD (P. aeruginosa [4]; P. aeruginosa PA81, broth microdilution): (R)
susceptibility classification, BMD (P. aeruginosa [4]; P. aeruginosa PAO1, broth microdilution): (S)
MIC (P. aeruginosa [4]; P. aeruginosa Blood Culture B, broth microdilution, read-out: Minimum inhibitory concentration, BMD): 8 µg/mL (≈ 20.9 µM)
MIC (P. aeruginosa [4]; P. aeruginosa Blood Culture C, broth microdilution, read-out: Minimum inhibitory concentration, BMD): 0.25 µg/mL (≈ 0.652 µM)
MIC (P. aeruginosa [4]; P. aeruginosa PA7, broth microdilution, read-out: Minimum inhibitory concentration, BMD): 1 µg/mL (≈ 2.61 µM)
MIC (P. aeruginosa [4]; P. aeruginosa PA46, broth microdilution, read-out: Minimum inhibitory concentration, BMD): 0.25 µg/mL (≈ 0.652 µM)
MIC (P. aeruginosa [4]; P. aeruginosa PA49, broth microdilution, read-out: Minimum inhibitory concentration, BMD): 0.5 µg/mL (≈ 1.3 µM)
MIC (P. aeruginosa [4]; P. aeruginosa PA81, broth microdilution, read-out: Minimum inhibitory concentration, BMD): 8 µg/mL (≈ 20.9 µM)
MIC (P. aeruginosa [4]; P. aeruginosa, strain not named (FIG. 13), read-out: MIC as determined by broth microdilution): 1 µg/mL (≈ 2.61 µM)
MIC (P. aeruginosa [4]; PAO1, P. aeruginosa PAO1, broth microdilution, read-out: Minimum inhibitory concentration, BMD): 0.5 µg/mL (≈ 1.3 µM)
